In patent publication US9113629B2, “4-amino-6-(4-substituted-phenyl)-picolinates and 6-amino-2-(4-substituted-phenyl)-pyrimidine-4-carboxylates and their use as herbicides” (DOW AGROSCIENCES LLC, priority 2013, dated 2015):
Like-named read-outs stand apart in the source and are kept apart here.

Tests used:
[1] = test system: Key Broadleaf Weed and Crop Species; assay: Post-emergent Test II herbicidal activity (Table 5); type: in vivo; settings: post-emergence, 336 h, 14 days after application; for pest or weed control at 70 g/ha: application rate 70 g ai/ha; for pest or weed control at 140 g/ha: application rate 140 g ai/ha
Method in brief: (§1)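 Test species were raised 7–21 d under greenhouse conditions until reaching the first or second true leaf, sprayed with formulated compound at 187 L/ha, and kept subirrigated to avoid wash-off. Fourteen days later, damage was rated visually on a 0–100% scale against untreated plants.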

[2] = test system: Key Grass and Sedge Weeds as well as Grass Crops; assay: Post-emergent Test II herbicidal activity (Table 6); type: in vivo; settings: post-emergence, 336 h; for pest or weed control at 70 g/ha: 70 g ai/ha; for pest or weed control at 140 g/ha: 140 g ai/ha
Method in brief: as §1

[3] = ABUTH: velvetleaf (Abutilon theophrasti), read-out: Visual Growth Reduction (%) 14 Days After Application, ABUTH
[4] = AMARE: redroot pigweed (Amaranthus retroflexus), read-out: Visual Growth Reduction (%) 14 Days After Application, AMARE
[5] = BRSNN: oilseed-rape, canola (Brassica napus), read-out: Visual Growth Reduction (%) 14 Days After Application, BRSNN
[6] = CHEAL: lambsquarters (Chenopodium album), read-out: Visual Growth Reduction (%) 14 Days After Application, CHEAL
[7] = EPHHL: wild poinsettia (Euphorbia heterophylla), read-out: Visual Growth Reduction (%) 14 Days After Application, EPHHL
[8] = HELAN: sunflower (Helianthus annuus), read-out: Visual Growth Reduction (%) 14 Days After Application, HELAN
[9] = VIOTR: wild pansy (Viola tricolor), read-out: Visual Growth Reduction (%) 14 Days After Application, VIOTR
[10] = CYPES: yellow nutsedge (Cyperus esculentus), read-out: Visual Growth Reduction (%) 14 Days After Application, CYPES
[11] = DIGSA: crabgrass (Digitaria sanguinalis), read-out: Visual Growth Reduction (%) 14 Days After Application, DIGSA
[12] = ECHCG: barnyardgrass (Echinochloa crus-galli), read-out: Visual Growth Reduction (%) 14 Days After Application, ECHCG
[13] = ORYSA: rice (Oryza sativa), crop, read-out: Visual Growth Reduction (%) 14 Days After Application, ORYSA
[14] = SETFA: giant foxtail (Setaria faberi), read-out: Visual Growth Reduction (%) 14 Days After Application, SETFA
[15] = SORVU: grain sorghum (Sorghum vulgare), read-out: Visual Growth Reduction (%) 14 Days After Application, SORVU
[16] = TRZSS (wheat, Triticum aestivum), crop, read-out: Visual Growth Reduction (%) 14 Days After Application, TRZSS
[17] = ZEAMX: maize, corn (Zea mays), crop, read-out: Visual Growth Reduction (%) 14 Days After Application, ZEAMX

## COC(=O)c1nc(-c2ccc(C#N)c(F)c2)c(F)c(N)c1Cl [Compound 135, methyl 4-amino-3-chloro-6-(4-cyano-3-fluorophenyl)-5-fluoropicolinate]
[1]; [3]
  pest or weed control at 70 g/ha: 95 to 100%
  pest or weed control at 140 g/ha: 95 to 100%
[1]; [4]
  pest or weed control at 70 g/ha: 95 to 100%
  pest or weed control at 140 g/ha: 95 to 100%
[1]; [5]
  pest or weed control at 70 g/ha: 60 to 74%
  pest or weed control at 140 g/ha: 60 to 74%
[1]; [6]
  pest or weed control at 70 g/ha: 95 to 100%
  pest or weed control at 140 g/ha: 95 to 100%
[1]; [7]
  pest or weed control at 70 g/ha: 95 to 100%
  pest or weed control at 140 g/ha: 95 to 100%
[1]; [8]
  pest or weed control at 70 g/ha: 95 to 100%
  pest or weed control at 140 g/ha: 95 to 100%
[1]; [9]
  pest or weed control at 70 g/ha: 60 to 74%
  pest or weed control at 140 g/ha: 60 to 74%
[2]; [10]
  pest or weed control at 70 g/ha: 85 to 94%
  pest or weed control at 140 g/ha: 95 to 100%
[2]; [11]
  pest or weed control at 70 g/ha: 60 to 74%
  pest or weed control at 140 g/ha: 75 to 84%
[2]; [12]
  pest or weed control at 70 g/ha: 95 to 100%
  pest or weed control at 140 g/ha: 95 to 100%
[2]; [13]
  pest or weed control at 70 g/ha: 0 to 29%
  pest or weed control at 140 g/ha: 0 to 29%
[2]; [14]
  pest or weed control at 70 g/ha: 60 to 74%
  pest or weed control at 140 g/ha: 75 to 84%
[2]; [15]
  pest or weed control at 70 g/ha: 75 to 84%
  pest or weed control at 140 g/ha: 85 to 94%
[2]; [16]
  pest or weed control at 70 g/ha: 30 to 44%
  pest or weed control at 140 g/ha: 30 to 44%
[2]; [17]
  pest or weed control at 70 g/ha: 75 to 84%
  pest or weed control at 140 g/ha: 75 to 84%
